{"source": "patent US7070965B1", "about": "“Small molecule anticancer compounds and related production process” (priority 1998, dated 2006)", "key": {"[1]": {"tested_on": "DU-145 human prostate carcinoma", "experiment": "Cytotoxicity ID50/ID75/ID90, trypan blue dye exclusion", "type": "cell-based", "settings": "48 hours", "protocol": "(§1) All cells in adherent culture were initiated at 5×10^4 cells/well in 96-well microplates and treated immediately with iso-C15 at different concentrations (0, 1.5, 3.0, 6.0, 15.0, 30.0, and 60.0 μg/ml) diluted with medium. Both untreated and solvent (NaOH and Tween 80) treated cells served as controls. The treated cells were incubated for 48 hours at 37° C. After incubation, the supernatants were removed and the cells were trypsinized and collected prior to viability assessment by trypan blue dye exclusion.\n(§2) The ID50, ID75 and ID90 were determined in duplicate in every set of experiments, and each experiment was repeated three times under identical conditions. ID50, ID75 and ID90 were defined as the concentration of iso-C15 required to kill 50, 75 or 90%, respectively, of cells (compared with that in untreated cells) and computed using CalcuSyn for Windows software (Biosoft, Cambridge UK) based on Median Effect method by Dr. T. C. Chou."}, "[2]": {"tested_on": "HCT 116 human colon carcinoma", "experiment": "Cytotoxicity ID50/ID75/ID90, trypan blue dye exclusion", "type": "cell-based", "settings": "48 hours", "protocol": "as §1, §2"}, "[3]": {"tested_on": "SNU-423 human hepatocellular carcinoma", "experiment": "Cytotoxicity ID50/ID75/ID90, trypan blue dye exclusion", "type": "cell-based", "settings": "48 hours", "protocol": "as §1, §2"}, "[4]": {"tested_on": "human prostate carcinoma DU145", "experiment": "Orthotopic nude mice model of human prostate carcinoma DU145", "type": "in vivo", "settings": "for Mean tumor weight / TIR (tumor inhibition rate): oral once a day", "protocol": "13-methyltetradecanoic acid (iso-C15) was chemically synthesized in the inventor's laboratory, as described in Example 5, infra, (purity of 99.8%) was prepared by dissolving in NaOH solution and then in 0.35% Tween 80 with pH7.5.\nTotal of 24 male athymic BALB/c nude mice between 4 and 5 weeks of age were bred and maintained in specific pathogen free condition.\nHuman prostate carcinoma DU145 tumor was implanted and maintained subcutaneously in the flank of athymic nude mice. Prior to orthotopic implantation, the tumor was harvested in log phase. The peripheral tumor tissue was collected and minced to small pieces of one cubic millimeter each.\nThe mice were anesthetized for surgical orthotopic implantation. A small incision was made along the midline of the lower abdomen. After proper exposure of the bladder and prostate, the capsule of the prostate was opened and three pieces of DU145 tumor fragments were inserted into the capsule. The capsule was then closed using 8-0 suture, and the abdomen was closed using a 6-0 surgical suture.\nThe mice bearing orthotopic DU145 were randomly divided into control and test groups of eight mice each at the second day after tumor implantation. The iso-C15 prepared above at doses 35 and 70 mg/kg and PBS were administered by gavage once a day in low dose and high dose test groups and control group, respectively, for […].\nAll the mice were sacrificed by CO2 inhalation at day-40 after the start of treatment. The weights of primary tumors and bodies were measured. Tissue samples of the primary tumors were processed through standard procedures of hematoxylin and eosin staining for microscopic examination.\nThe tumor inhibition rates (TIR) were determined by comparing the mean tumor weight of the test groups (T) with that of the control group (C) and expressed as a (C)−T)/C percentage, and were analyzed by Student's test for statistical significance."}, "[5]": {"tested_on": "normal human peripheral blood lymphocytes (PBL)", "experiment": "Cytotoxicity on normal cells, viability assessment", "type": "cell-based", "settings": "at concentrations lethal to tumor cells", "protocol": "PBLs, K-562 and SNU-1 cells in suspension culture were seeded in 96-well microplates at a density of 5×10^4 cells/well for K-562 and SNU-1, and 1×10^5 cells/well for PBLs. iso-C15 were diluted with medium to provide different concentrations (0, 1.5, 3.0, 6.0, 15.0, 30.0, and 60.0 μg/ml). Both untreated and solvent (NaOH and Tween 80) treated cells served as controls. After incubation for 48 hours at 37° C., cells were collected directly from the wells for viability assessment.\nas §2"}, "[6]": {"tested_on": "SNU-1 cells", "experiment": "In situ cell death detection (TUNEL, fluorescence microscopy)", "type": "cell-based, human", "settings": "60 μg/ml, 8 hours", "from_the_text": "In Situ Cell Death Detection Kit, POD (Mannheim Boehringer GmbH) was used to detect the individual apoptotic cells. Cleavage of genomic DNA during apoptosis may yield double-stranded, low molecular weight DNA fragments as well as single strand breaks in high molecular weight DNA. Those DNA strand breaks can be identified by labeling free 3′-OH termini with modified nucleotides in an enzymatic reaction. In this kit terminal deoxynucleotidyl transferase (TdT) is used to label free 3′-OH ends in genomic DNA with fluorescein-dUTP. The incorporated fluorescein is visualized under fluorescence microscope directly. The incorporated fluorescein can also bind to anti-fluorescein antibody POD and be detected by substrate reaction. Stained cells can be analyzed under light microscope.\nFour human tumor cell lines, K-562 human leukemia, SNU-1 human gastric carcinoma cell lines, MCF-7 human breast adenocarcinoma and H1688 human small cell lung carcinoma cell lines, as well as Human PBLs were treated with iso-C15 (60 μg/ml).\nSNU-1 cells treated with iso-C15 for 8 hours were added with TUNEL-reaction mixture and incubated 60 min at 37° C. After washing with PBS for three times, cell morphology was analyzed directly under fluorescence microscopy."}, "[7]": {"tested_on": "Human leukemia cell line K562", "experiment": "MTT assay, inhibition of cell growth", "type": "cell-based", "settings": "for Inhibitory rate (%) on cell growth: 24 hours, dissolved with 10% ethanol, listed as extracted iso-C15", "protocol": "(§3) MTT assay was performed to test the cytotoxicity. The K562 and SGC7901 cells were maintained in exponential growth in RPMI 1640 medium supplemented with 15% heat-inactivated newborn calf serum. The cells were plated at a density of 2×10^4 cells/100 μl medium/well into 96-well plate with medium containing samples in five final concentrations (7.5, 15, 30, 60 and 90 μg/ml) for iso-C15 (either synthesized or extracted) and one final concentration (30 μg/ml) for the others. The media in control wells contained no samples. The cells were incubated at 37° C. in a highly humidified incubator under 5% CO2 atmosphere for 24 hours. The supernatant was removed by fast inversion of the plate. 20 μl of 5 mg/ml MTT solution were added into each well. Incubation was continued for 4 hours. DMSO 100 μl/well was added and the plate was vibrated for 10 minutes. A570nm was read at the Immunoreader BioTek EL311S.\n(§4) The inhibition rate (%)=1−(mean A570nm in test wells/mean A570nm in control wells)"}, "[8]": {"tested_on": "human gastric cancer cell line SGC7901", "experiment": "MTT assay, inhibition of cell growth", "type": "cell-based", "settings": "dissolved with 10% ethanol; for Inhibitory rate (%) on cell growth: 24 hours, listed as extracted iso-C15", "protocol": "as §3, §4"}}, "data": [{"smiles": "CC(C)CCCCCCCCCCCC(=O)O", "note": "[iso-C15, 13-methyltetradecanoic acid]", "values": [{"measurement": "ID75", "setting": "[1]", "result": "40.43 ± 5.72", "unit": "µg/mL"}, {"measurement": "ID90", "setting": "[1]", "result": "81.87 ± 8.85", "unit": "µg/mL"}, {"measurement": "ID75", "setting": "[2]", "result": "67.96 ± 8.25", "unit": "µg/mL"}, {"measurement": "ID90", "setting": "[2]", "result": "108.65 ± 13.35", "unit": "µg/mL"}, {"measurement": "ID75", "setting": "[3]", "result": "70.46 ± 9.36", "unit": "µg/mL"}, {"measurement": "ID90", "setting": "[3]", "result": "120.77 ± 15.82", "unit": "µg/mL"}, {"measurement": "Mean tumor weight", "setting": "[4]; 35 mg/kg", "result": 493.25, "unit": "mg"}, {"measurement": "TIR (tumor inhibition rate)", "setting": "[4]; 35 mg/kg", "result": 54.8, "unit": "%"}, {"measurement": "Mean tumor weight", "setting": "[4]; 70 mg/kg", "result": 168.00, "unit": "mg"}, {"measurement": "TIR (tumor inhibition rate)", "setting": "[4]; 70 mg/kg", "result": 84.6, "unit": "%"}, {"measurement": "signs of toxicity (body weight curve, histology slides)", "setting": "[4]; 35 and 70 mg/kg oral", "result": "no signs of toxicity"}, {"measurement": "mice in which the implanted tumor did not grow", "setting": "[4]; high dose, 70 mg/kg, eight mice per group", "result": "four"}, {"measurement": "toxicity against normal human peripheral blood lymphocytes", "setting": "[5]", "result": "not toxic against normal human peripheral blood lymphocytes"}, {"measurement": "apoptotic cells, TUNEL fluorescence", "setting": "[6]", "result": "Several yellow fluorescent spots of apoptotic cells were noted"}, {"measurement": "Inhibitory rate (%) on cell growth", "setting": "[7]; 7.5 μg/ml", "result": 27.1, "unit": "%"}, {"measurement": "Inhibitory rate (%) on cell growth", "setting": "[7]; 15 μg/ml", "result": 51.2, "unit": "%"}, {"measurement": "Inhibitory rate (%) on cell growth", "setting": "[7]; 30 μg/ml", "result": 72.2, "unit": "%"}, {"measurement": "Inhibitory rate (%) on cell growth", "setting": "[7]; 60 μg/ml", "result": 83.7, "unit": "%"}, {"measurement": "Inhibitory rate (%) on cell growth", "setting": "[7]; 90 μg/ml", "result": 87.2, "unit": "%"}, {"measurement": "inhibition at 7.5 µg/mL", "setting": "[7]; Homo sapiens, K562, 24 h, read-out: Inhibitory rate (%) on cell growth, 7.5 μg/ml, dissolved with 10% ethanol", "result": 26.2, "unit": "%"}, {"measurement": "inhibition at 15 µg/mL", "setting": "[7]; Homo sapiens, K562, 24 h, read-out: Inhibitory rate (%) on cell growth, 15 μg/ml, dissolved with 10% ethanol", "result": 50.1, "unit": "%"}, {"measurement": "inhibition at 30 µg/mL", "setting": "[7]; Homo sapiens, K562, 24 h, read-out: Inhibitory rate (%) on cell growth, 30 μg/ml, dissolved with 10% ethanol", "result": 71.6, "unit": "%"}, {"measurement": "inhibition at 60 µg/mL", "setting": "[7]; Homo sapiens, K562, 24 h, read-out: Inhibitory rate (%) on cell growth, 60 μg/ml, dissolved with 10% ethanol", "result": 83.1, "unit": "%"}, {"measurement": "inhibition at 90 µg/mL", "setting": "[7]; Homo sapiens, K562, 24 h, read-out: Inhibitory rate (%) on cell growth, 90 μg/ml, dissolved with 10% ethanol", "result": 85.3, "unit": "%"}, {"measurement": "Inhibitory rate (%) on cell growth", "setting": "[8]; 15 μg/ml", "result": 28.1, "unit": "%"}, {"measurement": "Inhibitory rate (%) on cell growth", "setting": "[8]; 30 μg/ml", "result": 51.2, "unit": "%"}, {"measurement": "Inhibitory rate (%) on cell growth", "setting": "[8]; 60 μg/ml", "result": 62.1, "unit": "%"}, {"measurement": "Inhibitory rate (%) on cell growth", "setting": "[8]; 90 μg/ml", "result": 68.8, "unit": "%"}, {"measurement": "inhibition at 15 µg/mL", "setting": "[8]; Homo sapiens, SGC-7901, 24 h, 15 μg/ml, read-out: Inhibitory rate (%) on cell growth", "result": 27.5, "unit": "%"}, {"measurement": "inhibition at 30 µg/mL", "setting": "[8]; Homo sapiens, SGC-7901, 24 h, 30 μg/ml, read-out: Inhibitory rate (%) on cell growth", "result": 50.5, "unit": "%"}, {"measurement": "inhibition at 60 µg/mL", "setting": "[8]; Homo sapiens, SGC-7901, 24 h, 60 μg/ml, read-out: Inhibitory rate (%) on cell growth", "result": 63.1, "unit": "%"}, {"measurement": "inhibition at 90 µg/mL", "setting": "[8]; Homo sapiens, SGC-7901, 24 h, 90 μg/ml, read-out: Inhibitory rate (%) on cell growth", "result": 68.4, "unit": "%"}]}]}
